IC50 data for 26 compounds are collected here from patent US8975398B2, “NAMPT inhibitors” (AbbVie Inc., priority 2012, dated 2015).

Molecules are shown by their SMILES.

For test [1], the target named is NAMPT (Homo sapiens, UniProt P43490). The test can be described thus: Time-Resolved Fluorescence Resonance Energy Transfer (TR-FRET) Binding Assay of NAMPT with PRPP. The following applies: 2 nM NAMPT, 2 nM probe, 200 uM PRPP and 2.5 mM ATP, equilibrated 16 hours. As for the experimental part: Time-Resolved Fluorescence Resonance Energy Transfer (TR-FRET) Binding Assay of NAMPT with PRPP
NAMPT, sequence (P43490 whole entry): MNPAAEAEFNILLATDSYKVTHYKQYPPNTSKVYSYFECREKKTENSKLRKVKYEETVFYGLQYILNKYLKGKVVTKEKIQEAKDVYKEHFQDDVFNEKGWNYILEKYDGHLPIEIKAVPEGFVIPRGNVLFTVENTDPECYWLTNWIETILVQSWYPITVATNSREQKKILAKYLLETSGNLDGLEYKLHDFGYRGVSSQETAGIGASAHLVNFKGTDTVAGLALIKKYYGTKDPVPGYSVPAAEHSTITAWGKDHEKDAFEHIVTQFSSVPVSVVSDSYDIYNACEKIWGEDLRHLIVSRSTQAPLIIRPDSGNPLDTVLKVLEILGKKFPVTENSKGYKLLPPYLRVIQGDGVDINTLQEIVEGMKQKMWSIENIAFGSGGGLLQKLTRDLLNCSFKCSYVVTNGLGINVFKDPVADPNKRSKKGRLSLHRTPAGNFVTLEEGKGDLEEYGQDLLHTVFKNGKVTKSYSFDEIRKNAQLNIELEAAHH
Compound handling and data processing were identical to the assay in the absence of substrates (above). Final concentrations were 1× assay buffer, 2% DMSO, 2 nM NAMPT, 2 nM probe, 1 nM Tb-anti-His antibody (Invitrogen #PV5895), 200 uM PRPP and 2.5 mM ATP. Reactions were equilibrated for 16 hours prior to measurement to allow for potential enzymatic modification of test compounds.

The target in test [2] is NAMPT (human, recombinant, C-terminally His-tagged) (Homo sapiens, UniProt P43490). The test can be described thus: Time-Resolved Fluorescence Resonance Energy Transfer (TR-FRET) Binding Assay of NAMPT. The following applies: 6.8 nM NAMPT, 200 nM probe, equilibrated 3 hours, absence of substrates. As for the experimental part: Determination of the utility of compounds having Formula (I) as binders to and inhibitors of NAMPT was performed using Time-Resolved Fluorescence Resonance Energy Transfer (TR-FRET) binding assays.
NAMPT (human, recombinant, C-terminally His-tagged), sequence (P43490 whole entry): as above
Time-Resolved Fluorescence Resonance Energy Transfer (TR-FRET) Binding Assay of NAMPT
Test compounds were serially diluted (typically 11 half log dilutions) in neat DMSO to 50× final concentrations prior to dilution with assay buffer (50 mM HEPES (NaOH), pH 7.5, 100 mM NaCl, 10 mM MgCl2, 1 mM DTT, 1% Glycerol) to 3× and 6% DMSO. Six μL were transferred to 384-well low-volume plates (Owens Corning #3673). To this, 12 μL of a 1.5× solution containing enzyme, probe and antibody were added. Final concentrations in the 18 μL, reactions were 1× assay buffer, 2% DMSO, 6.8 nM NAMPT (human, recombinant, C-terminally His-tagged), 200 nM probe (a potent nicotinamide-competitive inhibitor conjugated to Oregon Green 488) and 1 nM Tb-anti-His antibody (Invitrogen #PV5895). Reactions were equilibrated at room temperature for 3 hours prior to reading on an Envision multi-label plate reader (Perkin Elmer; Ex=337 nm, Em=520 and 495 nm). Time-resolved FRET ratios (Em520/Em495) were normalized to controls, plotted as a function of compound concentration and fit with the four-parameter logistic equation to determine IC50s.

As for `CC(C)(O)C(=O)N1CCC(Oc2ccc(C(=O)NC3CN(c4cccnc4)C3)cc2)CC1` [Example 24, 4-{[1-(2-hydroxy-2-methylpropanoyl)piperidin-4-yl]oxy}-N-[1-(pyridin-3-yl)azetidin-3-yl]benzamide], the IC50 in test [1] turned out to be 0.861 nM; in test [2], 5880 nM.
Taken in the same sequence, the figures for `O=C(Nc1ccc(C2CCN(C(=O)CC3CCOCC3)CC2)cc1)C1CN(c2cccnc2)C1` [Example 25, 1-(pyridin-3-yl)-N-{4-[1-(tetrahydro-2H-pyran-4-ylacetyl)piperidin-4-yl]phenyl}azetidine-3-carboxamide] were 0.598 nM and 28.1 nM.
On to `O=C(Nc1ccc(C2CCN(C(=O)c3ccccc3)CC2)cc1)C1CN(c2cccnc2)C1` [Example 26, N-[4-(1-benzoylpiperidin-4-yl)phenyl]-1-(pyridin-3-yl)azetidine-3-carboxamide], for which the figures for the IC50 in test [1] and in test [2] were 0.761 nM and 5.05 nM, respectively.
Turning to `Cc1ncccc1N1CC(C(=O)Nc2ccc(C3CCN(C(=O)C(C)C)CC3)cc2)C1` [Example 29, N-{4-[1-(2-methylpropanoyl)piperidin-4-yl]phenyl}-1-(2-methylpyridin-3-yl)azetidine-3-carboxamide], the half-maximal inhibitory concentration (IC50) in test [1] was found to be 16.7 nM; in test [2], 79.8 nM.
The like results for `CC(C)C(=O)N1CCC(c2ccc(NC(=O)C3CN(c4cccnc4)C3)cc2)CC1` [Example 30, N-{4-[1-(2-methylpropanoyl)piperidin-4-yl]phenyl}-1-(pyridin-3-yl)azetidine-3-carboxamide] were, in that order, 0.267 nM and 15 nM.
With `CC(C)(O)C(=O)N1CCC(Oc2ccc(NC(=O)C3CN(c4cccnc4)C3)cc2)CC1` [Example 31, N-(4-{[1-(2-hydroxy-2-methylpropanoyl)piperidin-4-yl]oxy}phenyl)-1-(pyridin-3-yl)azetidine-3-carboxamide], the IC50 in test [1] was found to be 0.693 nM; in test [2] it was 135 nM.
With `CC[C@H](C)C(=O)N1CCC(Oc2ccc(NC(=O)C3CN(c4cccnc4)C3)cc2)CC1` [Example 32, N-[4-({1-[(2S)-2-methylbutanoyl]piperidin-4-yl}oxy)phenyl]-1-(pyridin-3-yl)azetidine-3-carboxamide], the IC50 in test [1] was determined as 0.284 nM; in test [2], 10.2 nM.
For the compound `O=C(Nc1ccc(OC2CCN(C(=O)[C@@H]3CCCO3)CC2)cc1)C1CN(c2cccnc2)C1` [Example 33, 1-(pyridin-3-yl)-N-[4-({1-[(2S)-tetrahydrofuran-2-ylcarbonyl]piperidin-4-yl}oxy)phenyl]azetidine-3-carboxamide], the IC50 in test [1] amounted to 0.342 nM; in test [2], 109 nM.
Taken in the same sequence, the figures for `CCCCC(=O)N1CCC(Oc2ccc(NC(=O)C3CN(c4cccnc4)C3)cc2)CC1` [Example 34, N-{4-[(1-pentanoylpiperidin-4-yl)oxy]phenyl}-1-(pyridin-3-yl)azetidine-3-carboxamide] were 0.886 nM and 71.4 nM.
Taken in the same sequence, the figures for `CC1CC1C(=O)N1CCC(Oc2ccc(NC(=O)C3CN(c4cccnc4)C3)cc2)CC1` (stereo not shown) [Example 35, N-[4-({1-[(2-methylcyclopropyl)carbonyl]piperidin-4-yl}oxy)phenyl]-1-(pyridin-3-yl)azetidine-3-carboxamide] were 0.866 nM and 91.6 nM.
The like results for `O=C(Nc1ccc(OC2CCN(C(=O)CC3C[C@@H]4CC[C@H]3C4)CC2)cc1)C1CN(c2cccnc2)C1` (stereo partly drawn) [Example 36, N-[4-({1-[(1S,4R)-bicyclo[2.2.1]hept-2-ylacetyl]piperidin-4-yl}oxy)phenyl]-1-(pyridin-3-yl)azetidine-3-carboxamide] were, in that order, 0.882 nM and 40.1 nM.
In the case of `CC(C)CCC(=O)N1CCC(Oc2ccc(NC(=O)C3CN(c4cccnc4)C3)cc2)CC1` [Example 37, N-(4-{[1-(4-methylpentanoyl)piperidin-4-yl]oxy}phenyl)-1-(pyridin-3-yl)azetidine-3-carboxamide], the results for the IC50 in test [1] and in test [2] were 0.983 nM and 68.9 nM, respectively.
For `CCC(C)CC(=O)N1CCC(Oc2ccc(NC(=O)C3CN(c4cccnc4)C3)cc2)CC1` (stereo not shown) [Example 38, N-(4-{[1-(3-methylpentanoyl)piperidin-4-yl]oxy}phenyl)-1-(pyridin-3-yl)azetidine-3-carboxamide], the IC50 was found to be 0.9 nM in test [1] and 46.5 nM in test [2].
`CCOCCC(=O)N1CCC(Oc2ccc(NC(=O)C3CN(c4cccnc4)C3)cc2)CC1` [Example 39, N-(4-{[1-(3-ethoxypropanoyl)piperidin-4-yl]oxy}phenyl)-1-(pyridin-3-yl)azetidine-3-carboxamide]: the IC50 was found to be 1.05 nM in test [1] and 104 nM in test [2].
For `CCC(C)(C)C(=O)N1CCC(Oc2ccc(NC(=O)C3CN(c4cccnc4)C3)cc2)CC1` [Example 40, N-(4-{[1-(2,2-dimethylbutanoyl)piperidin-4-yl]oxy}phenyl)-1-(pyridin-3-yl)azetidine-3-carboxamide], the IC50 in test [1] worked out at 0.49 nM; in test [2] it was 42.8 nM.
Taken in the same sequence, the figures for `CC(C)(C)CC(=O)N1CCC(Oc2ccc(NC(=O)C3CN(c4cccnc4)C3)cc2)CC1` [Example 41, N-(4-{[1-(3,3-dimethylbutanoyl)piperidin-4-yl]oxy}phenyl)-1-(pyridin-3-yl)azetidine-3-carboxamide] were 0.78 nM and 69.2 nM.
The like results for `CC(C)(C)C(=O)N1CCC(Oc2ccc(NC(=O)C3CN(c4cccnc4)C3)cc2)CC1` [Example 42, N-(4-{[1-(2,2-dimethylpropanoyl)piperidin-4-yl]oxy}phenyl)-1-(pyridin-3-yl)azetidine-3-carboxamide] were, in that order, 2.39 nM and 226 nM.
The like results for `CCCC(=O)N1CCC(Oc2ccc(NC(=O)C3CN(c4cccnc4)C3)cc2)CC1` [Example 43, N-{4-[(1-butanoylpiperidin-4-yl)oxy]phenyl}-1-(pyridin-3-yl)azetidine-3-carboxamide] were, in that order, 0.803 nM and 86.5 nM.
As for `CCOCC(=O)N1CCC(Oc2ccc(NC(=O)C3CN(c4cccnc4)C3)cc2)CC1` [Example 44, N-(4-{[1-(ethoxyacetyl)piperidin-4-yl]oxy}phenyl)-1-(pyridin-3-yl)azetidine-3-carboxamide], the IC50 in test [1] was 1.01 nM; in test [2], 138 nM.
The like results for `CC(C)CC(=O)N1CCC(Oc2ccc(NC(=O)C3CN(c4cccnc4)C3)cc2)CC1` [Example 45, N-(4-{[1-(3-methylbutanoyl)piperidin-4-yl]oxy}phenyl)-1-(pyridin-3-yl)azetidine-3-carboxamide] were, in that order, 1.08 nM and 87.3 nM.
As for `CC(C)C(=O)N1CCC(Oc2ccc(NC(=O)C3CN(c4cccnc4)C3)cc2)CC1` [Example 46, N-(4-{[1-(2-methylpropanoyl)piperidin-4-yl]oxy}phenyl)-1-(pyridin-3-yl)azetidine-3-carboxamide], the IC50 in test [1] is 1.02 nM; in test [2], 93.4 nM.
The like results for `CC(=O)N[C@@H](CC(C)C)C(=O)N1CCC(Oc2ccc(NC(=O)C3CN(c4cccnc4)C3)cc2)CC1` [Example 47, N-(4-{[1-(N-acetyl-L-leucyl)piperidin-4-yl]oxy}phenyl)-1-(pyridin-3-yl)azetidine-3-carboxamide] were, in that order, 1.78 nM and 80.5 nM.
The like results for `COCCOCC(=O)N1CCC(Oc2ccc(NC(=O)C3CN(c4cccnc4)C3)cc2)CC1` [Example 48, N-[4-({1-[(2-methoxyethoxy)acetyl]piperidin-4-yl}oxy)phenyl]-1-(pyridin-3-yl)azetidine-3-carboxamide] were, in that order, 0.861 nM and 112 nM.
The like results for `O=C(Nc1ccc(OC2CCN(C(=O)C3CCCCC3)CC2)cc1)C1CN(c2cccnc2)C1` [Example 49, N-(4-{[1-(cyclohexylcarbonyl)piperidin-4-yl]oxy}phenyl)-1-(pyridin-3-yl)azetidine-3-carboxamide] were, in that order, 1.02 nM and 66.1 nM.
Take `O=C(Nc1ccc(OC2CCN(C(=O)CC3CCCCC3)CC2)cc1)C1CN(c2cccnc2)C1` [Example 50, N-(4-{[1-(cyclohexylacetyl)piperidin-4-yl]oxy}phenyl)-1-(pyridin-3-yl)azetidine-3-carboxamide]: the half-maximal inhibitory concentration (IC50) in test [1] came to 1.1 nM; in test [2], 63.5 nM.
On to `O=C(Nc1ccc(OC2CCN(C(=O)CCC(F)(F)F)CC2)cc1)C1CN(c2cccnc2)C1` [Example 51, 1-(pyridin-3-yl)-N-(4-{[1-(4,4,4-trifluorobutanoyl)piperidin-4-yl]oxy}phenyl)azetidine-3-carboxamide], for which the IC50 in test [1] was 1.17 nM; in test [2], 109 nM.
